Tested on: N2a cells
Assay: MTT proliferation assay: rapamycin mediated cell growth inhibition of N2a cells
Assay type: cell-based, mouse
Settings: FIG. 7
Text: In a preferred embodiment, an MTT proliferation assay (see, e.g., van de Loosdrechet, et al., 1994, J. Immunol. Methods 174: 311-320; Ohno et al., 1991, J. Immunol. Methods 145:199-203; Ferrari et al., 1990, J. Immunol. Methods 131: 165-172; Alley et al., 1988, Cancer Res. 48: 589-601; Carmichael et al., 1987, Cancer Res. 47:936-942; Gerlier et al., 1986, J. Immunol. Methods 65:55-63; Mosmann, 1983, J. Immunological Methods 65:55-63) is used to screen for a candidate agent in conjunction with rapamycin to inhibit the growth of rapamycin resistant cells. The cells are treated with chosen concentrations of the candidate agent and rapamycin for 4 to 72 hours. The cells are then incubated with a suitable amount of 3-(4,5-dimethylthiazol-2-yl)-2,5-diphenyitetrazoiium bromide (MTT) for 1-8 hours such that viable cells convert MTT into an intracellular deposit of insoluble formazan. After removing the excess MTT contained in the supernatant, a suitable MTT solvent, e.g., a DMSO solution, is added to dissolved the formazan. The concentration of […], which is proportional to the number of viable cells, is then measured by determining the optical density at 570 nm. A plurality of different concentrations of the candidate agent can be assayed to allow the determination of the concentrations of the candidate agent and rapamycin which causes 50% inhibition. […]

CO[C@H]1C[C@@H]2CC[C@@H](C)[C@@](O)(O2)C(=O)C(=O)N2CCCC[C@H]2C(=O)O[C@H]([C@H](C)C[C@@H]2CC[C@@H](O)[C@H](OC)C2)CC(=O)[C@H](C)/C=C(\C)[C@@H](O)[C@@H](OC)C(=O)[C@H](C)C[C@H](C)/C=C/C=C/C=C/1C [rapamycin, 9,10,12,13,14,21,22,23,24,25,26,27, 32,33,34,34a-hexadecahydro-9,27-dihydroxy-3-[2-(4-hydroxy-3-methoxycyclohexyl)-1-methylethyl]-10,21-dimethoxy-6,8,12,14,20,26-hexamethyl-23,27-epoxy-3H-pyrido[2,1-c][1,4]oxaazacyclohentricontine-1,5,11,28,29(4H,6H,31H)-pentone]
rapamycin concentration at which the growth of N2a cells is completely inhibited (N2a cell line): ≥ 1 µM
concentration at which N2a cells are sensitive to rapamycin mediated cell growth inhibition (mouse neuroblastoma N2a cells, MTT assay): 10 nM
